Source: ChEMBL document CHEMBL1158145, “Xenofuranones A and B: phenylpyruvate dimers from Xenorhabdus szentirmaii” (J Nat Prod, 2006)
≈ marks a conversion by molar mass, not a printed value.

Test system: L929
Assay: Cytotoxicity against mouse L929 cells
Type: cell-based

For `COC1=C(c2ccccc2)C(Cc2ccccc2)OC1=O` (stereo unspecified) [XENOFURANONE A], the IC50 was 18 µg/mL (≈ 64.2 µM).
